The subject of one series is hCMEC/D3 cells. Kind of series: WST-1 cytotoxicity assay, hCMEC/D3. The class given is cell-based, human. The conditions noted are these: 24 h incubation, highest concentration of range 0.5 to 250 μg/ml, related to pure medium. The protocol:
(§1) hCMEC/D3 cells were cultivated using RPMI 1640 supplemented with 1% (v/v) non-essential amino acids, 1% ([…] (200 mM), 1% (v/v) gentamicin, 1% (v/v) sodium pyruvate (100 mM), 550 nM hydrocortisone, and 20% (v/v) FBS. Jurkat cells were cultivated using RPMI 1640 supplemented with 1% (v/v) of a mixture of penicillin (100 U/ml) and streptomycin (100 μg/ml), 1% ([…] (200 mM), 1% (v/v) gentamicin, and 10% (v/v) FBS. Both cell lines were stored in T75 cell culture flasks in an incubator at a temperature of 37° C. and 100% humidity at 5% CO2 atmosphere. The cells were split twice a week at a ratio of approximately 1:3. After thawing, all experiments were conducted within a maximum of 20 passages. To evaluate the cytotoxicity of the NP formulations a WST-1 assay (Roche Diagnostics, Mannheim, Germany) was conducted on Jurkat and hCMEC/D3 cell lines. Human macrophages and HUVECs were tested applying a XTT assay (Sigma-Aldrich Chemie GmbH, Munich, Germany). After seeding Jurkat and hCMEC/D3 cells in a 96 well plate at a density of 2×10^4 cells/well (hCMEC/D3 cells suspended in 100 μL, Jurkat cells suspended in 50 μL), they were cultured for 48 h with serum containing medium. […] After 30 min, the absorbance was measured again. […] The blank measurement was subtracted and the absorbances were correlated to the controls. […]

Another series relates to Jurkat cells. Kind of series: WST-1 cytotoxicity assay, Jurkat. The class given is cell-based, human. Particulars: 24 h incubation, highest concentration of range 0.5 to 250 μg/ml. On the procedure: as §1

One compound from US20250325695A1, “NANOPARTICLE FOR USE IN A PROPHYLAXIS OR IN A TREATMENT OF A CALCIFICATION OF BRUCHS MEMBRANE AND DRUSEN” (Universität Münster, priority 2024, published 2025) can be followed below.

For `O=C(O)CN(CCN(CC(=O)O)CC(=O)O)CCN(CC(=O)O)CC(=O)O` [DTPA, diethylenetriaminepentaacetic acid], in the series with hCMEC/D3 cells, the “cell viability, hCMEC/D3 cells” value is listed as 78.4±6.9%. Besides, the “cell viability, Jurkat cells” value in the series with Jurkat cells is listed as 73.0±6.6%.
